# From US4605744A, “Imidazole derivatives” (Hoffmann-La Roche Inc., priority 1985, dated 1986)
# Where a name gives a salt, the structure may show the parent alone. Read-outs that look alike come from different tables or passages of the source.
# Tests used:
# Test in all cases: In vitro antibacterial activity (MIC)
# Type in all cases: cell-based
# S. schottmuelleri = tested on: S. schottmuelleri
# Outline: (§1)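 Twofold-style dilution series (128 to 0.008 μg/ml) made in Mueller-Hinton broth, dispensed, then inoculated with 1.5 μl of a 10^-2 overnight-culture dilution. Plates sealed, held overnight at 37° C, inspected with a viewer.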
# P. vulgaris 101 = conditions: Proteus vulgaris, 101, P. vulgaris 101; read-out: MIC
# Outline: as §1
# S. pneumoniae 6301 = conditions: Streptococcus pneumoniae, 6301, S. pneumoniae 6301; read-out: MIC
# Outline: as §1
# E. aerogenes 83 = conditions: Klebsiella aerogenes, 83, E. aerogenes 83; read-out: MIC
# Outline: as §1
# P. aeruginosa 8710 = conditions: Pseudomonas aeruginosa; P. aeruginosa 8710; read-out: MIC
# Outline: as §1
# S. marcescens S1 = conditions: Serratia marcescens, S1, S. marcescens S1; read-out: MIC
# Outline: as §1
# S. pyogenes 503-782 = conditions: Streptococcus pyogenes, 503782; S. pyogenes 503-782; read-out: MIC
# Outline: as §1
# E. coli 5152 = conditions: Escherichia coli, 5152, E. coli 5152; read-out: MIC
# Outline: as §1
# S. pneumoniae SC = conditions: Streptococcus pneumoniae, read-out: MIC
# Outline: as §1
# S. marcescens S714 = conditions: Serratia marcescens, S714, S. marcescens S714; read-out: MIC
# Outline: as §1
# E. cloacae P99 = conditions: Enterobacter cloacae, P99, E. cloacae P99
# Outline: as §1
# P. mirabilis 90 = conditions: Proteus mirabilis, 90, P. mirabilis 90; read-out: MIC
# Outline: as §1
# S. marcescens S2 = conditions: Serratia marcescens; S. marcescens S2; read-out: MIC
# Outline: as §1
# S. marcescens S147 = conditions: Serratia marcescens; S. marcescens S147; read-out: MIC
# Outline: as §1
# K. pneumoniae 5096 = conditions: Klebsiella pneumoniae; K. pneumoniae 5096; read-out: MIC
# Outline: as §1
# E. cloacae 5699 = conditions: Enterobacter cloacae, 5699, E. cloacae 5699; read-out: MIC
# Outline: as §1
# P. vulgaris 100 = conditions: Proteus vulgaris; P. vulgaris 100; read-out: MIC
# Outline: as §1
# E. coli 48 = conditions: Escherichia coli, 48, E. coli 48; read-out: MIC
# Outline: as §1
# S. faecalis C1 = conditions: Enterococcus faecalis; S. faecalis C1; read-out: MIC
# Outline: as §1
# P. aeruginosa 6148B = conditions: Pseudomonas aeruginosa, read-out: MIC
# Outline: as §1
# E. cloacae 214 = conditions: Enterobacter cloacae, 214, E. cloacae 214; read-out: MIC
# Outline: as §1
# E. coli R-563 = conditions: Escherichia coli, R563, E. coli R-563; read-out: MIC
# Outline: as §1
# C. freundii CDC6 = conditions: Citrobacter freundii, CDC6, C. freundii CDC6; read-out: MIC
# Outline: as §1
# P. aeruginosa 5700 = conditions: Pseudomonas aeruginosa, 5700, P. aeruginosa 5700; read-out: MIC
# Outline: as §1
# C. diversus CDC 1663-72 = conditions: Citrobacter koseri, CDC166372; C. diversus CDC 1663-72; read-out: MIC
# Outline: as §1
# S. marcescens S5 = conditions: Serratia marcescens, S5, S. marcescens S5; read-out: MIC
# Outline: as §1
# K. pneumoniae 4964 = conditions: Klebsiella pneumoniae, 4964, K. pneumoniae 4964; read-out: MIC
# Outline: as §1
# S. pyogenes 4 = conditions: Streptococcus pyogenes, 4, S. pyogenes 4; read-out: MIC
# Outline: as §1
# P. mirabilis 190 = conditions: Proteus mirabilis, 190, P. mirabilis 190; read-out: MIC
# Outline: as §1
# C. freundii 8ASM = conditions: Citrobacter freundii, 8ASM, C. freundii 8ASM; read-out: MIC
# Outline: as §1
# E. cloacae 9570A = conditions: Enterobacter cloacae, read-out: MIC
# Outline: as §1
# E. cloacae 9295 = conditions: Enterobacter cloacae, 9295, E. cloacae 9295; read-out: MIC
# Outline: as §1
# E. coli 4 = conditions: Escherichia coli, 4, E. coli 4; read-out: MIC
# Outline: as §1
# S. marcescens S3 = conditions: Serratia marcescens; S. marcescens S3; read-out: MIC
# Outline: as §1
# K. pneumoniae 35 = conditions: Klebsiella pneumoniae; K. pneumoniae 35; read-out: MIC
# Outline: as §1
# K. pneumoniae 503-964 = conditions: Klebsiella pneumoniae, 503964; K. pneumoniae 503-964; read-out: MIC
# Outline: as §1
# E. coli 503-455 = conditions: Escherichia coli, 503455, E. coli 503-455; read-out: MIC
# Outline: as §1
# E. coli 387-1 = conditions: Escherichia coli, 3871, E. coli 387-1; read-out: MIC
# Outline: as §1
# P. mirabilis 620A = conditions: Proteus mirabilis, 620A, P. mirabilis 620A; read-out: MIC
# Outline: as §1
# S. aureus Giorgio = conditions: Staphylococcus aureus, S. aureus Giorgio; read-out: MIC
# Outline: as §1
# P. aeruginosa 8780 = conditions: Pseudomonas aeruginosa; P. aeruginosa 8780; read-out: MIC
# Outline: as §1
# S. pneumoniae 6302 = conditions: Streptococcus pneumoniae, 6302, S. pneumoniae 6302; read-out: MIC
# Outline: as §1
# S. marcescens S4 = conditions: Serratia marcescens, S4, S. marcescens S4; read-out: MIC
# Outline: as §1
# E. aerogenes 503-478 = conditions: Klebsiella aerogenes, 503478, E. aerogenes 503-478; read-out: MIC
# Outline: as §1
# P. aeruginosa 503-820 = conditions: Pseudomonas aeruginosa, 503820; P. aeruginosa 503-820; read-out: MIC
# Outline: as §1
smiles,measurement,setting,value
"Cc1nc(C)n(CCCC2CCN(C=N[C@@H]3C(=O)N4[C@@H]3SC(C)(C)[C@@H]4C(=O)O)CC2)c1C [E, [2S-(2alpha,5alpha,6beta)]-6[[4-[3-[(2,4,5-trimethyl-1H-imidazol-1-yl)propyl]-1-piperidinyl]methylene]amino]-3,3-dimethyl-7-oxo-4-thia-1-azabicyclo[3.2.0]heptane-2-carboxylic acid hydrate hydrochloride]",MIC,S. schottmuelleri; read-out: MIC,0.062 µg/mL
same,MIC,P. vulgaris 101,4 µg/mL
same,MIC,S. pneumoniae 6301,1 µg/mL
same,MIC,E. aerogenes 83,0.5 µg/mL
same,MIC,P. aeruginosa 8710,> 128 µg/mL
same,MIC,S. marcescens S1,1 µg/mL
same,MIC,S. pyogenes 503-782,128 µg/mL
same,MIC,E. coli 5152,8 µg/mL
same,MIC,S. pneumoniae SC,0.5 µg/mL
same,MIC,S. marcescens S714,1 µg/mL
same,MIC,E. cloacae P99,0.125 µg/mL
same,MIC,P. mirabilis 90,0.5 µg/mL
same,MIC,S. marcescens S2,0.5 µg/mL
same,MIC,S. marcescens S147,0.5 µg/mL
same,MIC,K. pneumoniae 5096,> 128 µg/mL
same,MIC,E. cloacae 5699,0.125 µg/mL
same,MIC,P. vulgaris 100,8 µg/mL
same,MIC,E. coli 48,0.062 µg/mL
same,MIC,S. faecalis C1,128 µg/mL
same,MIC,P. aeruginosa 6148B,> 128 µg/mL
same,MIC,E. cloacae 214,0.5 µg/mL
same,MIC,E. coli R-563,4 µg/mL
same,MIC,C. freundii CDC6,0.125 µg/mL
same,MIC,P. aeruginosa 5700,> 128 µg/mL
same,MIC,C. diversus CDC 1663-72,0.062 µg/mL
same,MIC,S. marcescens S5,1 µg/mL
same,MIC,K. pneumoniae 4964,1 µg/mL
same,MIC,S. pyogenes 4,0.5 µg/mL
same,MIC,P. mirabilis 190,0.25 µg/mL
same,MIC,C. freundii 8ASM,< 0.008 µg/mL
same,MIC,E. cloacae 9570A,0.125 µg/mL
same,MIC,E. cloacae 9295,0.25 µg/mL
same,MIC,E. coli 4,4 µg/mL
same,MIC,S. marcescens S3,0.25 µg/mL
same,MIC,K. pneumoniae 35,0.125 µg/mL
same,MIC,K. pneumoniae 503-964,0.062 µg/mL
same,MIC,E. coli 503-455,2 µg/mL
same,MIC,E. coli 387-1,4 µg/mL
same,MIC,P. mirabilis 620A,128 µg/mL
same,MIC,S. aureus Giorgio,8 µg/mL
same,MIC,P. aeruginosa 8780,> 128 µg/mL
same,MIC,S. pneumoniae 6302,1 µg/mL
same,MIC,S. marcescens S4,0.5 µg/mL
same,MIC,E. aerogenes 503-478,1 µg/mL
same,MIC,P. aeruginosa 503-820,> 128 µg/mL
"CC1(C)S[C@@H]2[C@H](N=CN3CCC(Cn4ccnc4CN)CC3)C(=O)N2[C@H]1C(=O)O [J, [2S-(2alpha,5alpha,6beta)]-6-[[[4-[[2-(aminomethyl)-1H-imidazol-1-yl]methyl]-1-piperidinyl]methylene]amino]-3,3-dimethyl-7-oxo-4-thia-1-azabicyclo[3.2.0]heptane-2-carboxylic acid hydrochloride]",MIC,S. schottmuelleri,0.062 µg/mL
same,MIC,P. vulgaris 101,8 µg/mL
same,MIC,S. pneumoniae 6301,1 µg/mL
same,MIC,E. aerogenes 83,1 µg/mL
same,MIC,P. aeruginosa 8710,> 128 µg/mL
same,MIC,S. marcescens S1,0.5 µg/mL
same,MIC,S. pyogenes 503-782,128 µg/mL
same,MIC,E. coli 5152,16 µg/mL
same,MIC,S. pneumoniae SC,4 µg/mL
same,MIC,S. marcescens S714,0.5 µg/mL
same,MIC,E. cloacae P99,8 µg/mL
same,MIC,P. mirabilis 90,1 µg/mL
same,MIC,S. marcescens S2,0.25 µg/mL
same,MIC,S. marcescens S147,0.25 µg/mL
same,MIC,K. pneumoniae 5096,128 µg/mL
same,MIC,E. cloacae 5699,4 µg/mL
same,MIC,P. vulgaris 100,8 µg/mL
same,MIC,E. coli 48,8 µg/mL
same,MIC,S. faecalis C1,128 µg/mL
same,MIC,P. aeruginosa 6148B,128 µg/mL
same,MIC,E. cloacae 214,1 µg/mL
same,MIC,E. coli R-563,0.125 µg/mL
same,MIC,C. freundii CDC6,64 µg/mL
same,MIC,P. aeruginosa 5700,0.5 µg/mL
same,MIC,C. diversus CDC 1663-72,0.031 µg/mL
same,MIC,S. marcescens S5,0.5 µg/mL
same,MIC,K. pneumoniae 4964,0.5 µg/mL
same,MIC,S. pyogenes 4,4 µg/mL
same,MIC,P. mirabilis 190,0.5 µg/mL
same,MIC,C. freundii 8ASM,0.125 µg/mL
same,MIC,E. cloacae 9570A,0.5 µg/mL
same,MIC,E. cloacae 9295,4 µg/mL
same,MIC,E. coli 4,0.062 µg/mL
same,MIC,S. marcescens S3,0.25 µg/mL
same,MIC,K. pneumoniae 35,0.5 µg/mL
same,MIC,K. pneumoniae 503-964,0.25 µg/mL
same,MIC,E. coli 503-455,1 µg/mL
same,MIC,E. coli 387-1,0.125 µg/mL
same,MIC,P. mirabilis 620A,> 128 µg/mL
same,MIC,S. aureus Giorgio,8 µg/mL
same,MIC,P. aeruginosa 8780,> 128 µg/mL
same,MIC,S. pneumoniae 6302,4 µg/mL
same,MIC,S. marcescens S4,1 µg/mL
same,MIC,E. aerogenes 503-478,8 µg/mL
same,MIC,P. aeruginosa 503-820,> 128 µg/mL
